What was measured:
B. subtilis 168 [1] = assay: fitness (endpoint OD595 vs no drug) (fraction); higher = more growth
In short: (§1)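 Growth medium was TSB, LB Lennox or CY, and plates were kept at 37 °C. Inoculation was at OD595 0.01 in 384-well plates, at 30 µl per well or 55 µl for S. pneumoniae. OD595 was monitored every 30 min for 14 h and background-subtracted using the first reading. Fitness is the optical density on entering stationary phase divided by the robust mean of no-drug controls, with values capped at 1.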

S. aureus DSM 20231 [2] = assay: as above
In short: as §1

S. aureus Newman [3] = assay: as above
In short: as §1

S. pneumoniae D39V [4] = assay: as above
In short: as §1

B. subtilis 168 [5] = assay: Bliss interaction score (quartile over a dose matrix) (fitness difference); higher = more antagonism (negative = synergy)
In short: (§2)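 Combination data were used to infer fitness under each single drug. Fitness is the OD595 at entry into stationary phase divided by the robust mean of the plate's no-drug wells, with a cap of 1. The Bliss score is the observed minus the expected product fitness, summarised by quartiles over technical, biological and donor/recipient replicates.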

S. aureus DSM 20231 [6] = assay: as above
In short: as §2

S. aureus Newman [7] = assay: as above
In short: as §2

S. pneumoniae D39V [8] = assay: as above
In short: as §2
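For Bliss interaction score (quartile over a dose matrix) in this document: first quartile when negative (synergy) and third quartile when positive (antagonism).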

CCCCCCCCCC(=O)N[C@@H](Cc1c[nH]c2ccccc12)C(=O)N[C@H](CC(N)=O)C(=O)N[C@@H](CC(=O)O)C(=O)N[C@@H]1C(=O)NCC(=O)N[C@@H](CCCN)C(=O)N[C@@H](CC(=O)O)C(=O)N[C@H](C)C(=O)N[C@@H](CC(=O)O)C(=O)NCC(=O)N[C@H](CO)C(=O)N[C@@H]([C@H](C)CC(=O)O)C(=O)N[C@@H](CC(=O)c2ccccc2N)C(=O)O[C@@H]1C [Daptomycin] + COc1cccc2c1C(=O)c1c(O)c3c(c(O)c1C2=O)C[C@@](O)(C(=O)CO)C[C@@H]3O[C@H]1C[C@H](N)[C@H](O)[C@H](C)O1 [Doxorubicin]
Conditions | fitness
B. subtilis 168 [1], first compound 0.125 µg/mL, partner 0.625 µg/mL | 0.93
B. subtilis 168 [1], first compound 0.125 µg/mL, partner 1.25 µg/mL | 0.905
B. subtilis 168 [1], first compound 0.125 µg/mL, partner 2.5 µg/mL | 0.628
B. subtilis 168 [1], first compound 0.25 µg/mL, partner 0.625 µg/mL | 0.93
B. subtilis 168 [1], first compound 0.25 µg/mL, partner 1.25 µg/mL | 0.911
B. subtilis 168 [1], first compound 0.5 µg/mL, partner 0.625 µg/mL | 0.84
S. aureus DSM 20231 [2], first compound 0.5 µg/mL, partner 0.625 µg/mL | 0.91
S. aureus DSM 20231 [2], first compound 0.5 µg/mL, partner 1.25 µg/mL | 0.935
S. aureus DSM 20231 [2], first compound 0.5 µg/mL, partner 2.5 µg/mL | 0.829
S. aureus DSM 20231 [2], first compound 1 µg/mL, partner 0.625 µg/mL | 0.887
S. aureus DSM 20231 [2], first compound 1 µg/mL, partner 1.25 µg/mL | 0.961
S. aureus DSM 20231 [2], first compound 1 µg/mL, partner 2.5 µg/mL | 0.852
S. aureus DSM 20231 [2], first compound 2 µg/mL, partner 0.625 µg/mL | 0.926
S. aureus DSM 20231 [2], first compound 2 µg/mL, partner 1.25 µg/mL | 0.914
S. aureus DSM 20231 [2], first compound 2 µg/mL, partner 2.5 µg/mL | 0.841
S. aureus Newman [3], first compound 0.125 µg/mL, partner 0.625 µg/mL | 0.867
S. aureus Newman [3], first compound 0.125 µg/mL, partner 1.25 µg/mL | 0.865
S. aureus Newman [3], first compound 0.125 µg/mL, partner 2.5 µg/mL | 0.739
S. aureus Newman [3], first compound 0.25 µg/mL, partner 0.625 µg/mL | 0.869
S. aureus Newman [3], first compound 0.25 µg/mL, partner 1.25 µg/mL | 0.851
S. aureus Newman [3], first compound 0.25 µg/mL, partner 2.5 µg/mL | 0.748
S. aureus Newman [3], first compound 0.5 µg/mL, partner 0.625 µg/mL | 0.829
S. aureus Newman [3], first compound 0.5 µg/mL, partner 1.25 µg/mL | 0.834
S. aureus Newman [3], first compound 0.5 µg/mL, partner 2.5 µg/mL | 0.755
S. pneumoniae D39V [4], first compound 1 µg/mL, partner 0.25 µg/mL | 0.86
S. pneumoniae D39V [4], first compound 1 µg/mL, partner 0.5 µg/mL | 0.876
S. pneumoniae D39V [4], first compound 1 µg/mL, partner 1 µg/mL | 0.669
S. pneumoniae D39V [4], first compound 2 µg/mL, partner 0.25 µg/mL | 0.936
S. pneumoniae D39V [4], first compound 2 µg/mL, partner 0.5 µg/mL | 0.875
S. pneumoniae D39V [4], first compound 2 µg/mL, partner 1 µg/mL | 0.721
S. pneumoniae D39V [4], first compound 4 µg/mL, partner 1 µg/mL | 0.686

B. subtilis 168 [1], first compound 1 µg/mL, one replicate
Conditions | fitness
partner 0.625 µg/mL | 0.783
partner 1.25 µg/mL | 0.645
partner 2.5 µg/mL | 0.197

Conditions | Bliss interaction score
B. subtilis 168 [5] | 0.0744
S. aureus DSM 20231 [6] | 0.0493
S. aureus Newman [7] | -0.0594
S. pneumoniae D39V [8] | 0.0772

CCCCCCCCCC(=O)N[C@@H](Cc1c[nH]c2ccccc12)C(=O)N[C@H](CC(N)=O)C(=O)N[C@@H](CC(=O)O)C(=O)N[C@@H]1C(=O)NCC(=O)N[C@@H](CCCN)C(=O)N[C@@H](CC(=O)O)C(=O)N[C@H](C)C(=O)N[C@@H](CC(=O)O)C(=O)NCC(=O)N[C@H](CO)C(=O)N[C@@H]([C@H](C)CC(=O)O)C(=O)N[C@@H](CC(=O)c2ccccc2N)C(=O)O[C@@H]1C [Daptomycin] + C[C@@H]1O[C@@H]1P(=O)(O)O [Fosfomycin]
fitness
Conditions | first compound 0.125 µg/mL | first compound 0.25 µg/mL | first compound 0.5 µg/mL | first compound 1 µg/mL | first compound 2 µg/mL | first compound 4 µg/mL
B. subtilis 168 [1], partner 1.562 µg/mL | 0.686 | 0.728 | 0.771 | – | – | –
B. subtilis 168 [1], partner 3.124 µg/mL | 0.642 | 0.645 | 0.625 | – | – | –
B. subtilis 168 [1], partner 6.248 µg/mL | 0.492 | 0.468 | 0.511 | – | – | –
S. aureus DSM 20231 [2], partner 0.781 µg/mL | 0.742 | 0.659 | 0.818 | 0.879 | 0.778 | –
S. aureus DSM 20231 [2], partner 1.562 µg/mL | 0.589 | 0.586 | 0.621 | 0.609 | 0.601 | –
S. aureus DSM 20231 [2], partner 3.124 µg/mL | 0.498 | 0.496 | 0.505 | 0.495 | 0.508 | –
S. aureus Newman [3], partner 0.781 µg/mL | 0.657 | 0.674 | 0.703 | – | – | –
S. aureus Newman [3], partner 1.562 µg/mL | 0.536 | 0.534 | 0.534 | – | – | –
S. aureus Newman [3], partner 3.124 µg/mL | 0.233 | 0.172 | 0.16 | – | – | –
S. pneumoniae D39V [4], partner 1.25 µg/mL | – | – | – | 0.93 | 0.919 | –
S. pneumoniae D39V [4], partner 2.5 µg/mL | – | – | – | 0.844 | 0.845 | 0.767
S. pneumoniae D39V [4], partner 5 µg/mL | – | – | – | 0.624 | 0.64 | 0.597

B. subtilis 168 [1], first compound 1 µg/mL, one replicate
Conditions | fitness
partner 1.562 µg/mL | 0.7
partner 3.124 µg/mL | 0.501
partner 6.248 µg/mL | 0.305

Conditions | Bliss interaction score
B. subtilis 168 [5] | 0.063
S. aureus DSM 20231 [6] | -0.0509
S. aureus Newman [7] | 0.0452
S. pneumoniae D39V [8] | 0.0735

CCCCCCCCCC(=O)N[C@@H](Cc1c[nH]c2ccccc12)C(=O)N[C@H](CC(N)=O)C(=O)N[C@@H](CC(=O)O)C(=O)N[C@@H]1C(=O)NCC(=O)N[C@@H](CCCN)C(=O)N[C@@H](CC(=O)O)C(=O)N[C@H](C)C(=O)N[C@@H](CC(=O)O)C(=O)NCC(=O)N[C@H](CO)C(=O)N[C@@H]([C@H](C)CC(=O)O)C(=O)N[C@@H](CC(=O)c2ccccc2N)C(=O)O[C@@H]1C [Daptomycin] + C[n+]1ccc(-c2cc[n+](C)cc2)cc1 [Paraquat]
fitness
Conditions | first compound 0.125 µg/mL | first compound 0.25 µg/mL | first compound 0.5 µg/mL | first compound 1 µg/mL | first compound 2 µg/mL | first compound 4 µg/mL
B. subtilis 168 [1], partner 1.25 µg/mL | 0.901 | 0.93 | 0.85 | – | – | –
B. subtilis 168 [1], partner 2.5 µg/mL | 0.9 | 0.901 | 0.902 | – | – | –
B. subtilis 168 [1], partner 5 µg/mL | 0.894 | 0.857 | 0.81 | – | – | –
S. aureus DSM 20231 [2], partner 1.25 µg/mL | 0.906 | 0.9 | 0.942 | 0.932 | 0.883 | –
S. aureus DSM 20231 [2], partner 2.5 µg/mL | 0.898 | 0.923 | 0.991 | 0.968 | 0.995 | –
S. aureus DSM 20231 [2], partner 5 µg/mL | 0.93 | 0.927 | 0.924 | 1 | 0.907 | –
S. aureus Newman [3], partner 1.25 µg/mL | ≥ 1 | ≥ 1 | 0.995 | – | – | –
S. aureus Newman [3], partner 2.5 µg/mL | ≥ 1 | ≥ 1 | 0.977 | – | – | –
S. aureus Newman [3], partner 5 µg/mL | 0.974 | 0.945 | 0.9 | – | – | –
S. pneumoniae D39V [4], partner 1.5 µg/mL | – | – | – | 0.996 | 0.987 | 0.936
S. pneumoniae D39V [4], partner 3 µg/mL | – | – | – | 0.973 | 0.955 | 0.937
S. pneumoniae D39V [4], partner 6 µg/mL | – | – | – | 0.974 | 0.922 | 0.872

B. subtilis 168 [1], first compound 1 µg/mL, one replicate
Conditions | fitness
partner 1.25 µg/mL | 0.743
partner 2.5 µg/mL | 0.722
partner 5 µg/mL | 0.653

Conditions | Bliss interaction score
B. subtilis 168 [5] | 0.0589
S. aureus DSM 20231 [6] | -0.0451
S. aureus Newman [7] | 0.0526
S. pneumoniae D39V [8] | 0.0711
